Like-named read-outs stand apart in the source and are kept apart here. Starred links: 1 amine or outer side, 2 acyl side, 3 side chain; linkers in the order of their positions; H or OH if unused. Non-standard residues stand in square brackets, D forms with d. *: point of attachment. mPro = cis-3,4-methanoproline, O=C([C@@H]1[C@@H]2C[C@@H]2CN1[*:1])[*:2]; pY = N[C@@H](Cc1ccc(OP(=O)(O)O)cc1)C(=O)O; Hydrocinnamoyl = O=C(CCc1ccccc1)*; NHBn = c1ccc(CN*)cc1
How the values were obtained:
SH2 domain of Stat3 [1] = molecular target: T1, SH2 domain of Stat3 (Homo sapiens, UniProt P40763); assay: fluorescence polarization; type: binding; conditions: for fold lower affinity than the unsubstituted methyl group: relative to 4-methyl Aba peptide (17)
T1 sequence (P40763 whole entry, the tested form may be a part): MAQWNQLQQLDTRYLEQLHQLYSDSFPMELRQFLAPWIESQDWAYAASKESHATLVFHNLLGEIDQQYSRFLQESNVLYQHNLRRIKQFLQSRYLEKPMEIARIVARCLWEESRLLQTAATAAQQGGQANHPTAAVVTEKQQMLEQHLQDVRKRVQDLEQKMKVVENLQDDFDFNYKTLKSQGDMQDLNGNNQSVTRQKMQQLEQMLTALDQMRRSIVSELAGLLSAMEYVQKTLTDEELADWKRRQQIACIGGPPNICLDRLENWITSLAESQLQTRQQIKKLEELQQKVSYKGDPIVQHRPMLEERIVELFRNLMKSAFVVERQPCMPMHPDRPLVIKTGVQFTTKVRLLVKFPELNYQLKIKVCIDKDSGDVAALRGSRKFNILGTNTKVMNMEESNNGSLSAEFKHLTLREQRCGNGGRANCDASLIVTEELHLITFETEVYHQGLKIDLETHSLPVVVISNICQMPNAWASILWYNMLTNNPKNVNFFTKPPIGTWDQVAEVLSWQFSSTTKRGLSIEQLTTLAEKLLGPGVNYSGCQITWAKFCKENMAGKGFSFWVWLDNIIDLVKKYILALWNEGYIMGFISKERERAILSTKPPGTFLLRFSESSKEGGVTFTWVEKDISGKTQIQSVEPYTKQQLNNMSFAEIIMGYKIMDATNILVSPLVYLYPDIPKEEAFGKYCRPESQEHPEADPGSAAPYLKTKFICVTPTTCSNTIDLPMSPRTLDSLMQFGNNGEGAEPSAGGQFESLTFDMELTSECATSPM

SH2 domain of Stat3 [2] = molecular target: T1, SH2 domain of Stat3; conditions: FP assay; ref [8]; cited from earlier work

CC(C)C[C@H](NC(=O)/C=C/c1ccc(OP(=O)(O)O)cc1)C(=O)N1CCC[C@H]1C(=O)N[C@@H](CCC(N)=O)CN(Cc1ccccc1)Cc1ccccc1 [Peptide 29]
fold lower affinity than the unsubstituted methyl group (SH2 domain of Stat3 [1]): 7 fold

CC(C)C[C@H](NC(=O)/C=C/c1ccc(OP(=O)(O)O)cc1)C(=O)N1CCC[C@H]1C(=O)N[C@H](CN)CCC(N)=O [Peptide 30]
fold lower affinity than the unsubstituted methyl group (SH2 domain of Stat3 [1]): 10 fold

CC(C)C[C@H](NC(=O)/C=C/c1ccc(OP(=O)(O)O)cc1)C(=O)N1CCC[C@H]1C(=O)N[C@@H](COC(N)=O)[C@H](C)OCc1ccccc1 [Peptide 37]
IC50 (SH2 domain of Stat3 [1]): 6.9 µM

CC(C)C[C@H](NC(=O)/C=C/c1ccc(OP(=O)(O)O)cc1)C(=O)N1CCC[C@H]1C(=O)N[C@H](C)CNC(N)=O [Peptide 39]
fold loss in activity on addition of a methyl group (SH2 domain of Stat3 [1]; relative to 2-aminoethylurea peptide 38): 10 fold

CC(C)C[C@H](NC(=O)/C=C/c1ccc(OP(=O)(O)O)cc1)C(=O)N1C[C@H]2C[C@H]2[C@H]1C(=O)N[C@@H](CCC(N)=O)C(=O)NCc1ccccc1 [Peptide 40, pCinn-Leu-cis-3,4-methanoPro-Gln-NHBn]
fold increase in affinity on incorporation of cis-3,4-methanoPro (SH2 domain of Stat3 [1]; relative to peptide 2): 2 fold

hydrocinnamoyl-pTyr-Leu-mPro-Gln-NHBn (Hydrocinnamoyl-[pY]L[mPro]Q-NHBn; SMILES CC(C)C[C@H](NC(=O)[C@H](Cc1ccc(OP(=O)(O)O)cc1)NC(=O)CCc1ccccc1)C(=O)N1C[C@H]2C[C@H]2[C@H]1C(=O)N[C@@H](CCC(N)=O)C(=O)NCc1ccccc1)
IC50 (SH2 domain of Stat3 [2]): 0.125 µM

From paper PMC2859832 (Journal of medicinal chemistry, 2009)
